Reference: ChEMBL document CHEMBL5104165, “Novel fragment-derived colchicine-site binders as microtubule-destabilizing agents” (Eur J Med Chem, 2022)
Calls of active or inactive are those of the source. The calls are words filed in the database; no cut-off is given here.

How the values were obtained:
[1] = tested on: HeLa; assay: Cytotoxicity against human HeLa cells assessed as inhibition of cell growth incubated for 72 hrs by resazurin dye based assay; format: functional
[2] = target: T1, Tubulin (Homo sapiens) (UniProt P68371+Q9H4B7+P0DPH7+P68366+Q13509+Q71U36+P04350+Q3ZCM7+P07437+P68363+Q9BQE3+Q6PEY2+Q13885+Q9BVA1+Q9BUF5); assay: Disruption of microtubules in human HMF3A cells at 5 uM measured after 1 hr by immunostaining based confocal microscopic analysis; format: cell-based
[3] = target: T1, Tubulin (Homo sapiens); assay: Disruption of microtubules in human HMF3A cells assessed as increase in nucleus size at 5 uM measured after 4 hrs by immunostaining based confocal microscopic analysis; format: cell-based
[4] = target: T1, Tubulin (Homo sapiens); assay: Disruption of microtubules in human HMF3A cells assessed as increase in cell size at 5 uM measured after 4 hrs by immunostaining based confocal microscopic analysis

SMILES	IC50 [1] [µM]	also measured
N#Cc1ccc2[nH]c(NCc3ccco3)nc2c1	> 80	
Cc1ccc2[nH]c(NCc3ccco3)nc2c1	5.6	
FC(F)(F)c1ccc2[nH]c(NCc3ccco3)nc2c1	9.9	
c1ccc(Oc2ccc3[nH]c(NCc4ccco4)nc3c2)cc1	0.94	Activity [2]: Active; Activity [3]: Active; Activity [4]: Active
c1coc(CNc2nc3ccccc3[nH]2)c1	54	
COC(=O)c1ccc2[nH]c(NCc3ccco3)nc2c1	7	
COc1ccc2[nH]c(NCc3ccco3)nc2c1	10.1	
Cc1ccc(CNc2nc3ccccc3[nH]2)o1	22.3	
Clc1ccc2[nH]c(NCc3ccco3)nc2c1	4.5	
